{"source": "patent US9976165B2", "about": "“Methods for increasing molecular diversity of polyketides and non-ribosomal proteins” (Isomerase Therapeutics Limited, priority 2013, dated 2018)", "key": {"FKBP12": {"biological_target": "FKBP12 (Homo sapiens, UniProt P62942)", "sequence (P62942 whole entry, species assumed)": "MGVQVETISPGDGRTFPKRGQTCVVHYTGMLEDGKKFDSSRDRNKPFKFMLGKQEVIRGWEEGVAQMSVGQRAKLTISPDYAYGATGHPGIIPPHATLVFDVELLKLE", "assay": "FKBP12 PPIase assay (inhibition of peptidyl-prolyl isomerase activity)", "format": "biochemical", "conditions": "6 concentrations in duplicate, data fitted to a Ki curve", "protocol": "The first order rate equation was fitted to the absorbance data to obtain a rate constant. A catalytic rate (Kenz) was calculated from the enzymatic rate minus the background rate. Kenz v inhibitor concentration was plotted to obtain the Ki value. […] All compounds were assayed at 6 concentrations in duplicate and the data fitted to a Ki curve to afford a Ki value with standard error (SE)."}, "[1]": {"assay": "Murine PLP T cell proliferation assay (PLP assay)", "format": "cell-based", "conditions": "Mus musculus, off-target (mTOR-driven) immunosuppressive potency", "protocol": "Activity of mTOR inhibitors was measured in two different antigen-specific murine T cell proliferation assays (as described in Young et al., 2000). […] In a second type of assay, lymph nodes obtained from PLP TCR transgenic mice are simulated with PLP peptide in culture in a primary stimulation assay."}}}
{"smiles": "CO[C@H]1C[C@@H]2CC[C@@H](C)[C@](O)(CC(=O)N3CCCC[C@H]3C(=O)OC([C@H](C)C[C@@H]3CC[C@@H](O)[C@H](O)C3)C/C=C(\\C)[C@@H](O)CC(=O)[C@H](C)CC[C@H](C)/C=C/C=C/C=C/1C)O2", "note": "(stereo partly drawn) [Compound 9]", "values": [{"measurement": "Ki", "setting": "FKBP12", "result": 0.18, "unit": "µM"}]}
{"smiles": "CO[C@H]1C[C@@H]2CC[C@@H](C)[C@@](O)(O2)C(=O)C(=O)N2CCCC[C@H]2C(=O)OC([C@H](C)C[C@H]2CC[C@H](O)CC2)C[C@@H](O)CC(=O)[C@H](C)CC[C@H](C)/C=C/C=C/C=C/1C", "note": "(stereo partly drawn) [Compound 4]", "values": [{"measurement": "IC50", "setting": "[1]", "result": 4.46, "unit": "µM"}]}
{"smiles": "CO[C@H]1C[C@@H]2CC[C@@H](C)[C@@](O)(O2)C(=O)C(=O)N2CCCC[C@H]2C(=O)O[C@H](/C(C)=C/C[C@H](O)[C@H](C)C[C@H]2CC[C@H](O)CC2)CC(=O)[C@H](C)C[C@H](C)/C=C/C=C/C=C/1C", "note": "[Compound 21]", "values": [{"measurement": "Ki", "setting": "FKBP12", "result": 0.095, "unit": "µM"}]}
